Assay results reported in patent publication US20160074405A1, “COMPOSITIONS AND METHODS FOR THE TREATMENT OF DRUG-INDUCED HAND-FOOT SYNDROME” (Duke University, priority 2009, published 2016).

Assays:
[1] = patients treated with the agent; cited from earlier work
[2] = PPE grade observed in the treated patients under anti-cancer drug; assay type: in vivo, human; settings: individual patient before sildenafil
Protocol: (§1) The first patient had both metastatic pancreatic cancer and a history of mild Raynaud's syndrome.
(§2) The third patient was a person with a gastro-intestinal stromal tumor (GIST) refractory to imatinib, who was being treated with sunitinib. […] They were treated with topical 2% sildenafil three times daily. To ensure activity in the setting of potentially significant costs for custom formulation, this patient applied topical sildenafil to only their left hand. […] This patient later was dosed with 1% topical sildenafil once per week. In addition, this patient experienced sunitinib-induced gastrointestinal toxicities (enteritis, diarrhea), which were treated with oral sildenafil to allow systemic absorption. The initial dose was 50 mg oral sildenafil daily. […] Thereafter lower doses were used on an as needed basis, including a quarter tablet (50 mg size) given once or twice per week.
(§3) A fourth patient was a person with metastatic angiosarcoma, who was treated with sunitinib for over four years.

[3] = Topical sildenafil treatment of patients with drug-induced PPE (case reports); assay type: in vivo, human
Protocol: Four patients were treated with topical sildenafil for PPE, two with PPE related to capecitabine and two with PPE related to sunitinib. […] This initial clinical experience was outside the context of formal clinical trials, since no such trials were available.
as §1
Administration of 5FU was held due to the severity and persistence of the hand-foot syndrome. Topical sildenafil was applied to only the left hand.
as §2, §3

[4] = Oral sildenafil treatment of sunitinib-induced gastrointestinal toxicities and hand-foot syndrome (case report); assay type: in vivo, human; settings: third patient; 50 mg oral sildenafil daily
Protocol: as §2

[5] = Side effects of sildenafil treatment in the PPE patients; assay type: in vivo, human
Protocol: The third patient was a person with a gastro-intestinal stromal tumor (GIST) refractory to imatinib, who was being treated with sunitinib. Despite a gratifying response to sunitinib, they experienced grade 3 sunitinib-related PPE that required frequent dose holding and reduction. They were treated with topical 2% sildenafil three times daily. To ensure activity in the setting of potentially significant costs for custom formulation, this patient applied topical sildenafil to only their left hand. […] After only 3 doses (1 day) they noticed an improvement on the tenderness and redness of their hands. […] The improvement was “like day and night.” The right hand had all of these complications. These were severe enough that the patient had difficulty physically closing their hand more than halfway due to skin thickening as well as pain. Their left hand was completely flexible. After administration to both hands, they were able for the first time in many months to shake hands and make a first without difficulty or pain and they restarted playing their guitar in their church choir. This patient later was dosed with 1% topical sildenafil once per week. In addition, this patient experienced sunitinib-induced gastrointestinal toxicities (enteritis, diarrhea), which were treated with oral sildenafil to allow systemic absorption. The initial dose was 50 mg oral sildenafil daily. […] Thereafter lower doses were used on an as needed basis, including a quarter tablet (50 mg size) given once or twice per week.
Since each of these patients initially had only one affected skin region treated, followed by treatment of the other similarly affected regions, each patient was able to serve as her/his own control.

Structure (SMILES): CCCCCOC(=O)Nc1nc(=O)n([C@@H]2O[C@H](C)[C@@H](O)[C@H]2O)cc1F [capecitabine]
- frequency of any grade (grade 1-3) PPE [1]: ≤ 54%
- frequency of severe (grade 3) PPE [1]: ≤ 17%
- PPE grade under anti-cancer treatment [2]: 2-3 grade

Structure (SMILES): CCCc1nn(C)c2c(=O)[nH]c(-c3cc(S(=O)(=O)N4CCN(C)CC4)ccc3OCC)nc12 [sildenafil]
- patient's pain and size and depth of the digital ulcers ([3]; first patient (capecitabine, Raynaud's), topical 2% applied to ulcers, within a week): marked improvement
- PPE of the treated palm ([3]; first patient, topical, full palm of one hand): significant improvement
- PPE of treated right hand and foot ([3]; fourth patient (sunitinib 37.5 mg per day, grade 1 at start), topical 2% in cold cream base): improved markedly
- time to marked improvement of treated right hand and foot ([3]; fourth patient, topical 2% in cold cream base): 1-2 weeks
- pain and redness of the left hand ([3]; second patient (capecitabine/5FU regimens), topical to left hand only, by day 8): improvement
- hand-foot syndrome in both hands ([3]; second patient, by day 72): resolved
- tenderness and redness of hands ([3]; third patient (sunitinib, grade 3 PPE), topical 2% three times daily, left hand, after 3 doses (1 day)): improvement
- multiple blisters, cracks, and callousness ([3]; third patient, topical 2% three times daily, after 4 weeks): resolved essentially completely
- pain, redness and blisters ([3]; third patient, topical 2% three times daily, by one week): markedly improved
- PPE-related symptoms ([3]; topical sildenafil, patients with capecitabine- or sunitinib-related PPE): significantly improved
- gastrointestinal toxicities and hand-foot syndrome [4]: rapidly improved
- time to improvement of gastrointestinal toxicities and hand-foot syndrome [4]: ≤ 1 days
- adverse impact on cancer's response to treatment ([5]; all treated patients): no patient had any suggestion of an adverse impact
- local or systemic side effects ([5]; all treated patients): No local or systemic side effects
- side effects such as headache, chest pain, lightheadedness, spontaneous erections ([5]; third patient, topical 2% three times daily, month of treatment): no side effects

Structure (SMILES): CNC(=O)c1cc(Oc2ccc(NC(=O)Nc3ccc(Cl)c(C(F)(F)F)c3)cc2)ccn1 [sorafenib]
- frequency of any grade (grade 1-3) PPE [1]: ≤ 30%
- frequency of severe (grade 3) PPE [1]: ≤ 8%

Structure (SMILES): CCN(CC)CCNC(=O)c1c(C)[nH]c(/C=C2\C(=O)Nc3ccc(F)cc32)c1C [sunitinib]
- frequency of any grade (grade 1-3) PPE [1]: up to 21%
- frequency of severe (grade 3) PPE [1]: up to 5%
- PPE grade under anti-cancer treatment [2]: 3 grade
